Experimental data from PubChem BioAssay AID504313 (Emory University Molecular Libraries Screening Center, 2011).
Active and inactive are the calls of the source. No rule for the calls is given here.

The compounds below were run against X-box-binding protein 1 (Homo sapiens) (UniProt P17861) (assay: inhibitors of XBP1 reporter signal, dose response, counter-screen, cell-based (AID 504313;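 also: CHO cells carrying an XBP1 reporter stimulated with tunicamycin; potency is for inhibition of the tunicamycin-induced reporter signal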)). Conditions: XBP1 reporter cell assay, percent of control.

Row | Compound | IC50
1 | CCn1c(C)nc2cc(-c3nc4n(n3)Cc3ccccc3-4)ccc21 | < 0.16 µM (inactive)
2 | CC(C)c1ccc(-c2cc(C(=O)N3N=C(C(F)F)CC3(O)C(F)F)c3ccccc3n2)cc1 (centres undefined) | 5.02 µM
3 | FC(F)(F)c1cccc(NC(=S)N2CCN(c3cccc(C(F)(F)F)c3)CC2)c1 | 4.52 µM
4 | COc1cc(-c2nc3ccc4ccccc4c3c3c2CCC3)cc(OC)c1O | inactive
5 | CCc1ccc(/C=c2\s/c(=C\C(=O)C(C)(C)C)[nH]c2=O)cc1 | inactive
6 | CCOc1ccc(N(CC(=O)Nc2cccc(Cl)c2)S(=O)(=O)c2c(C)noc2C)cc1 | inactive
7 | C/C(=N\N=C1\NC(=O)C(CC(=O)Nc2ccc(C)c(Cl)c2)S1)C(C)(C)C (centres undefined) | 4.96 µM
8 | O=C1C(Nc2ccccc2)=C/C(=N/S(=O)(=O)c2cccs2)c2ccccc21 | 1.17 µM
9 | Cc1cc(/C=N/n2cnnc2)c(C)n1-c1ccc(OCc2ccc(F)cc2)cc1 | inactive
10 | NC(=O)c1ccc(C(F)(F)F)n(Cc2c(Cl)cccc2Cl)c1=O | inactive
11 | C=C(C)Cn1c(N2CCC(Cc3ccccc3)CC2)nc2c1c(=O)[nH]c(=O)n2C | > 10 µM (inactive)
12 | O=S(=O)(NCC(Nc1ccc(Cl)cc1)c1ccccc1)c1ccc(Cl)cc1 (centres undefined) | > 10 µM (inactive)
13 | O=S1(=O)C=C(Sc2nc3ccccc3s2)c2ccccc21 | 2.74 µM
14 | COc1ccc(/C=C/C(=O)NC(=S)NNC(=O)c2cccnc2)cc1 | > 10 µM (inactive)
15 | CCc1ccc(OCC(=O)NC(NC(=S)Nc2ccccc2)C(Cl)(Cl)Cl)cc1 (centres undefined) | > 10 µM (inactive)
16 | COc1ccc(C(=O)NC(=O)Nc2cc(C)ccn2)cc1 | inactive
17 | O=C(COCC(=O)Nc1cccc(C(F)(F)F)c1)Nc1cccc(C(F)(F)F)c1 | inactive
18 | Cc1cccc(Nc2nc(N)c([N+](=O)[O-])c(N3CC(C)CC(C)C3)n2)c1 (centres undefined) | inactive
19 | COc1ccc(/C=C2/C(=O)ON=C2c2ccccc2)cc1OC | > 10 µM (inactive)
20 | CCC(C)(C)c1ccc(Oc2ccc(N)cc2)cc1 | < 0.16 µM
21 | O=c1c2ccccc2nc2n1CCN2Cc1ccc(Cl)cc1 | > 10 µM (inactive)
22 | C=CCn1c(SCC(=O)Nc2ccc(-c3nc4ccc(C)cc4s3)cc2)nnc1-c1ccccc1 | > 10 µM (inactive)
23 | COC(=O)c1ccc2c(c1)C(C)(C)C(/C=C/c1ccc(OC)c(OC)c1OC)=[N+]2C | inactive
24 | CCCCc1nc(NCCN)c(C#N)c2c1CSC(C)(C)C2 | inactive
25 | CCOC(=O)C1=C(c2ccc(OC)cc2)C(=O)c2ccccc2C1=O | inactive

Row | Compound | IC50
26 | COC(=O)CN1C(=S)N(Cc2ccccc2)C(=O)C1CC(=O)Nc1ccc(Br)cc1 (centres undefined) | 5.87 µM
27 | CC(C)Cn1c(N)c(C(=O)COC(=O)CC23CC4CC(CC(C4)C2)C3)c(=O)n(C)c1=O | inactive
28 | Cc1cc(C)cc(NC(=O)/C(C#N)=C/c2cn(CC(=O)NCc3ccco3)c3ccccc23)c1 | 4.94 µM
29 | CC1CCc2cc(F)ccc2N1C(=O)CSc1nnc2c(n1)[nH]c1ccc(F)cc12 (centres undefined) | > 10 µM (inactive)
30 | O=S1(=O)C=C(Sc2nnc(-c3ccccc3)o2)c2ccccc21 | inactive
31 | Cc1ccc(N=C2SC(C(=O)Nc3ccc(OC(F)(F)F)cc3)C(N)=C2C(=O)Nc2c(C)cc(C)cc2C)cc1 (centres undefined) | > 10 µM (inactive)
32 | Oc1ccc(/C=N/Nc2nc(-c3ccc(Cl)cc3)cc(C(F)(F)F)n2)cc1 | > 10 µM (inactive)
33 | O=C(c1ccc(COc2ccc(Cl)cc2)o1)N1N=C(C(F)F)CC1(O)C(F)F (centres undefined) | inactive
34 | Cc1cc(C(=O)CCl)c(C)n1-c1cccc(S(=O)(=O)N2CCOCC2)c1 | > 10 µM (inactive)
35 | O=C(On1c(-c2ccccc2)nc2ccccc2c1=O)c1ccco1 | > 10 µM (inactive)
36 | CC(C)(C)c1ccc(C2CC2C(=O)N/N=C\c2ccc[nH]2)cc1 (centres undefined) | inactive
37 | CC(C)CCSc1nc2c(c(=O)[nH]c(=O)n2C)n1CCCc1ccccc1 | > 10 µM (inactive)
38 | NC(=O)c1cc(-c2ccccc2)nc(N2CCCCCC2)n1 | inactive
39 | O=C(Nc1cccc(Cl)c1Cl)c1cc(S(=O)(=O)NCCc2ccccc2)ccc1F | inactive
40 | OC(CNCCc1ccc(C(F)(F)F)cc1)COc1cccc2ccccc12 (centres undefined) | < 0.16 µM (inactive)
41 | COc1cc(NC(=O)COc2ccccc2[N+](=O)[O-])ccc1NC(=O)c1cccs1 | > 10 µM (inactive)
42 | Cc1cc(C(=O)N/N=C/c2ccc(-c3cccc(Cl)c3Cl)o2)n[nH]1 | > 10 µM (inactive)
43 | CC[C@@H](C)[C@H](NC(=O)OC(C)(C)C)c1nnc(S(=O)(=O)Cc2cc(C)ccc2C)o1 | 3.76 µM
44 | CC1=C(CO)C(=O)OC([C@@H](C)C2CC[C@H]3C4C[C@H]5O[C@]56[C@@H](O)C=CC(=O)[C@]6(C)C4CC[C@]23C)C1 (some centres undefined) | > 10 µM (inactive)
45 | O=C(NC1CCCCC1)C(c1ccc(F)cc1)N(Cc1ccccc1)C(=O)CN1C(=O)c2ccccc2S1(=O)=O (centres undefined) | inactive
46 | CCCCn1c(/N=C/c2c[nH]c3ccccc23)nc2ccccc21 | > 10 µM (inactive)
47 | O=C(Nc1ccc(-c2nc3ccccc3o2)cc1)c1ccc(N2CCOCC2)c([N+](=O)[O-])c1 | > 10 µM (inactive)
48 | OCCCNc1cc(-c2ccnc(Nc3cccc(Cl)c3)n2)ccn1 | < 0.16 µM
49 | COc1ccccc1NCC(O)COc1ccc(C(C)(C)C)cc1 (centres undefined) | inactive
